Consider 65 molecules from patent publication US20070265261A1, “Dpp-IV Inhibitors” (priority 2004, published 2007).

The structures appear in SMILES notation.

T1 sequence (P27487 31-766): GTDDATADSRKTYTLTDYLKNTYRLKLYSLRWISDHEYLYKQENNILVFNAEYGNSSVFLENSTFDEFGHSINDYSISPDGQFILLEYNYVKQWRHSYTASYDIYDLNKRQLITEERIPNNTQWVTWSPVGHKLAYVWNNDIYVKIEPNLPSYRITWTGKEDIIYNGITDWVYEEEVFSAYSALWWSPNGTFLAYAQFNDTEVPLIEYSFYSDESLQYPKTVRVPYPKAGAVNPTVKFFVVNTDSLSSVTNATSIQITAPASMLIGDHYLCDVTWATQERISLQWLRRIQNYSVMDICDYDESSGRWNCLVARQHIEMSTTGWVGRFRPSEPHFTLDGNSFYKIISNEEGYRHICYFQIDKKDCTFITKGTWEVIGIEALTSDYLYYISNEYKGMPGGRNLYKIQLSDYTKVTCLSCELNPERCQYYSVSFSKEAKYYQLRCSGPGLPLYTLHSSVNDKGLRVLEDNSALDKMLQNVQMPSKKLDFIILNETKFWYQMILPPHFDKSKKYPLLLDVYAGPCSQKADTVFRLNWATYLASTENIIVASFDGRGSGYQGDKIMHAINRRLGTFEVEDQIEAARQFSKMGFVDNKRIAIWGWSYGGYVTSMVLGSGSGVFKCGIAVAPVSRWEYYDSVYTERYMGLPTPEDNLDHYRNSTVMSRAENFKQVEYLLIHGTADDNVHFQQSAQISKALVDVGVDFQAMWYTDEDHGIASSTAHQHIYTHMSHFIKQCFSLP

This test has as its target T1, DPP-IV (Homo sapiens, UniProt P27487).
T1 construct: Soluble human DPP-IV lacking the transmembrane anchor (Gly31-Pro766); Pre-Pro-alpha-mating factor leader (secretion signal) (N, cleaved yes); made in house
The test is described as follows: Inhibition of DPP-IV peptidase activity, continuous fluorimetric assay (cleavage of Gly-Pro-AMC). In kind it is biochemical. The procedure:
Inhibition of DPP-IV peptidase activity was monitored with a continuous fluorimetric assay. This assay is based on the cleavage of the substrate Gly-Pro-AMC (Bachem) by DPP-IV, releasing free AMC. The assay is carried out in 96-well microtiter plates. In a total volume of 100 μL, compounds are preincubated with […] DPP-IV employing a buffer containing 10 mM Hepes, 150 mM NaCl, 0.005% Tween 20 (pH 7.4). […] The final concentration of DMSO is 1%. The inhibitory potential of the compounds were determined.
Soluble human DPP-IV lacking the transmembrane anchor (Gly31-Pro766) was expressed in a recombinant YEAST-strain as Pre-Pro-alpha-mating fusion. The secreted product (rhuDPP-IV-Gly31-Pro766) was purified from fermentation broth (>90% purity).
Usually IC50 stands for the concentration that inhibits the measured activity by half. Lower therefore signals greater potency. In the case of `N[C@@H](Cc1cc(F)ccc1F)C1CCN(C(=O)c2cnccn2)CC1` (single isomer, unassigned) [Example 44], the IC50 was 101 to 1000 nM.

In the case of `N[C@@H](Cc1cc(F)ccc1F)C1CCN(C(=O)c2ccc(C(F)(F)F)nc2)CC1` (single isomer, unassigned) [Example 47], the half-maximal inhibitory concentration (IC50) lay within 1000 to 2000 nM.

`N[C@@H](Cc1cc(F)ccc1F)C1CCN(C(=O)c2ccnc(C(F)(F)F)n2)CC1` (single isomer, unassigned) [Example 50] showed an IC50 of 101 to 1000 nM.

Regarding `N[C@@H](Cc1cc(F)ccc1F)C1CCN(C(=O)c2ccnn2C(F)F)CC1` (single isomer, unassigned) [Example 53], the IC50 lay within 1000 to 2000 nM.

With `N[C@@H](Cc1cc(F)c(F)cc1F)C1CCN(C(=O)c2ccnc(C(F)(F)F)n2)CC1` (single isomer, unassigned) [Example 65], the IC50 lay in the range of 1000 to 2000 nM.

In turn, `N[C@H](Cc1cccc(Cl)c1)C1CCNCC1` (stereo in doubt) [Example 7, 2-(3-Chloro-phenyl)-1-piperidin-4-yl-ethylamine] had an IC50 of 101 to 1000 nM.

Regarding `CC(C)(C)OC(=O)N1CCC(C(N)Cc2cccc(Cl)c2)CC1` (centres unmarked) [Example 6, 4-[1-Amino-2-(3-chloro-phenyl)-ethyl]-piperidine-1-carboxylic acid tert.-butyl ester], the half-maximal inhibitory concentration (IC50) was in the range of 101 to 1000 nM.

In the case of `N[C@H](Cc1cccc(Cl)c1)C1CCN(C(=O)c2ncccn2)CC1` [Example 8, {4-[(R)-1-Amino-2-(3-chloro-phenyl)-ethyl]-piperidin-1-yl}-pyrimidin-2-yl-methanone], the half-maximal inhibitory concentration (IC50) was < 100 nM.

In turn, `NC(Cc1cccc(Cl)c1)C1CCN(C(=O)C2CC2)CC1` (centres unmarked) [Example 9] yielded a half-inhibitory concentration (IC50) of 101 to 1000 nM.

As for `NC(Cc1cccc(Cl)c1)C1CCN(C(=O)c2ccccc2)CC1` (centres unmarked) [Example 10], the 50% inhibitory concentration (IC50) was < 100 nM.

`NC(Cc1cccc(Cl)c1)C1CCN(C(=O)c2cccnc2)CC1` (centres unmarked) [Example 11]: the concentration for half-maximal inhibition (IC50) is < 100 nM.

Take `NC(Cc1cccc(Cl)c1)C1CCN(C(=O)CC2CC2)CC1` (centres unmarked) [Example 12]: the IC50 is 101 to 1000 nM.

In turn, `NC(Cc1cccc(Cl)c1)C1CCN(C(=O)C2CCOC2)CC1` (centres unmarked) [Example 13] came in with an IC50 of 101 to 1000 nM.

In turn, `NC(Cc1cccc(Cl)c1)C1CCN(C(=O)Cc2ccccc2)CC1` (centres unmarked) [Example 14] had an IC50 of 101 to 1000 nM.

As for `NC(Cc1cccc(Cl)c1)C1CCN(C(=O)c2cnccn2)CC1` (centres unmarked) [Example 15], the 50% inhibitory concentration (IC50) is < 100 nM.

As to `NC(Cc1cccc(Cl)c1)C1CCN(C(=O)C2(C(F)(F)F)CC2)CC1` (centres unmarked) [Example 16], the IC50 lay within 101 to 1000 nM.

Consider `NC(Cc1cccc(Cl)c1)C1CCN(C(=O)c2ccc(C(F)(F)F)nc2)CC1` (centres unmarked) [Example 17], for which the half-inhibitory concentration (IC50) is < 100 nM.

On to `NC(Cc1cccc(Cl)c1)C1CCN(C(=O)c2cn[nH]c2)CC1` (centres unmarked) [Example 18], for which the IC50 lay within 101 to 1000 nM.

`Cn1cc(C(=O)N2CCC(C(N)Cc3cccc(Cl)c3)CC2)c(C(F)(F)F)n1` (centres unmarked) [Example 19]: the IC50 is < 100 nM.

In the case of `NC(Cc1cccc(Cl)c1)C1CCN(C(=O)c2ncccn2)CC1` (centres unmarked) [Example 20], the IC50 is < 100 nM.

Molecule `N[C@@H](Cc1cccc(Cl)c1)C1CCN(C(=O)c2ncccn2)CC1` [Example 21] yielded an IC50 of 1000 to 2000 nM.

On to `NC(Cc1cccc(Cl)c1)C1CCN(C(=O)c2ccnnc2)CC1` (centres unmarked) [Example 22], for which the IC50 was < 100 nM.

Take `NC(Cc1cccc(Cl)c1)C1CCN(C(=O)c2cncnc2)CC1` (centres unmarked) [Example 23]: the IC50 was < 100 nM.

For the molecule `Cc1cc(C(=O)N2CCC(C(N)Cc3cccc(Cl)c3)CC2)no1` (centres unmarked) [Example 24], the IC50 is < 100 nM.

As for `NC(Cc1cccc(Cl)c1)C1CCN(C(=O)c2ccnn2C(F)F)CC1` (centres unmarked) [Example 25], the half-maximal inhibitory concentration (IC50) was < 100 nM.

`NC(Cc1cccc(Cl)c1)C1CCN(C(=O)c2ccn(C(F)F)n2)CC1` (centres unmarked) [Example 26]: the IC50 is < 100 nM.

As to `Cn1cncc1C(=O)N1CCC(C(N)Cc2cccc(Cl)c2)CC1` (centres unmarked) [Example 27], the concentration for half-maximal inhibition (IC50) was < 100 nM.

On to `Cn1ncc(C(=O)N2CCC(C(N)Cc3cccc(Cl)c3)CC2)c1C(F)(F)F` (centres unmarked) [Example 28], for which the IC50 was < 100 nM.

As to `Cn1cnc(C(=O)N2CCC(C(N)Cc3cccc(Cl)c3)CC2)c1` (centres unmarked) [Example 29], the IC50 was in the range of 101 to 1000 nM.

`Cn1nc(C(=O)N2CCC(C(N)Cc3cccc(Cl)c3)CC2)cc1C(F)(F)F` (centres unmarked) [Example 30]: the half-inhibitory concentration (IC50) is < 100 nM.

The molecule `Cn1nc(C(F)(F)F)cc1C(=O)N1CCC(C(N)Cc2cccc(Cl)c2)CC1` (centres unmarked) [Example 31] showed a concentration for half-maximal inhibition (IC50) of 101 to 1000 nM.

For the molecule `NC(Cc1cccc(Cl)c1)C1CCN(C(=O)c2cnccc2C(F)(F)F)CC1` (centres unmarked) [Example 32], the IC50 was < 100 nM.

`NC(Cc1cccc(Cl)c1)C1CCN(C(=O)c2cc(C(F)(F)F)n[nH]2)CC1` (centres unmarked) [Example 33] displayed a concentration for half-maximal inhibition (IC50) of 101 to 1000 nM.

With `NC(Cc1cccc(Cl)c1)C1CCN(S(=O)(=O)C2CC2)CC1` (centres unmarked) [Example 34, 2-(3-Chloro-phenyl)-1-(1-cyclopropanesulphonyl-piperidin-4-yl)-ethylamine], the IC50 was < 100 nM.

Regarding `NC(Cc1cccc(Cl)c1)C1CCN(S(=O)(=O)c2ccccc2)CC1` (centres unmarked) [Example 35], the half-inhibitory concentration (IC50) is < 100 nM.

For `NC(Cc1cccc(Cl)c1)C1CCN(S(=O)(=O)Cc2ccccc2)CC1` (centres unmarked) [Example 36], the concentration for half-maximal inhibition (IC50) is < 100 nM.

`NC(Cc1cc(F)ccc1F)C1CCN(S(=O)(=O)C2CC2)CC1` (centres unmarked) [Example 37]: the IC50 was < 100 nM.

On to `N[C@H](Cc1cc(F)ccc1F)C1CCN(S(=O)(=O)C2CC2)CC1` [Example 38], for which the half-maximal inhibitory concentration (IC50) was < 100 nM.

For the molecule `N[C@@H](Cc1cc(F)ccc1F)C1CCN(S(=O)(=O)C2CC2)CC1` [Example 39], the IC50 lay within 101 to 1000 nM.

Turning to `CC(C)(C)OC(=O)N1CCC(C(N)Cc2cc(F)ccc2F)CC1` (centres unmarked) [Example 40, 4-[1-Amino-2-(2,5-difluoro-phenyl)-ethyl]-piperidine-1-carboxylic acid tert-butyl ester], the IC50 was < 100 nM.

Consider `N[C@H](Cc1cc(F)ccc1F)C1CCN(C(=O)c2ncccn2)CC1` [Example 41], for which the IC50 is < 100 nM.

In the case of `N[C@@H](Cc1cc(F)ccc1F)C1CCN(C(=O)c2ncccn2)CC1` [Example 42], the IC50 is 1000 to 2000 nM.

In the case of `N[C@H](Cc1cc(F)ccc1F)C1CCN(C(=O)c2cnccn2)CC1` [Example 43], the IC50 is < 100 nM.

With `NC(Cc1cc(F)ccc1F)C1CCN(C(=O)c2cnccn2)CC1` (centres unmarked) [Example 45], the half-inhibitory concentration (IC50) is < 100 nM.

`N[C@H](Cc1cc(F)ccc1F)C1CCN(C(=O)c2ccc(C(F)(F)F)nc2)CC1` [Example 46]: the 50% inhibitory concentration (IC50) is < 100 nM.

For the molecule `NC(Cc1cc(F)ccc1F)C1CCN(C(=O)c2ccc(C(F)(F)F)nc2)CC1` (centres unmarked) [Example 48], the IC50 was < 100 nM.

Take `N[C@H](Cc1cc(F)ccc1F)C1CCN(C(=O)c2ccnc(C(F)(F)F)n2)CC1` [Example 49]: the 50% inhibitory concentration (IC50) is < 100 nM.

For `NC(Cc1cc(F)ccc1F)C1CCN(C(=O)c2ccnc(C(F)(F)F)n2)CC1` (centres unmarked) [Example 51], the concentration for half-maximal inhibition (IC50) was < 100 nM.

In the case of `N[C@H](Cc1cc(F)ccc1F)C1CCN(C(=O)c2ccnn2C(F)F)CC1` [Example 52], the IC50 was < 100 nM.

On to `NC(Cc1cc(F)ccc1F)C1CCN(C(=O)c2cnc(C(F)(F)F)nc2)CC1` (centres unmarked) [Example 54], for which the IC50 was < 100 nM.

On to `NC(Cc1cc(F)ccc1F)C1CCN(C(=O)c2ncc(F)cc2F)CC1` (centres unmarked) [Example 55], for which the IC50 is < 100 nM.

Consider `NC(Cc1cc(F)ccc1F)C1CCN(C(=O)c2ccn(C(F)F)n2)CC1` (centres unmarked) [Example 56], for which the IC50 was < 100 nM.

As for `NC(Cc1cc(F)ccc1F)C1CCN(C(=O)c2ncccc2C(F)(F)F)CC1` (centres unmarked) [Example 57], the IC50 is < 100 nM.

Turning to `NC(Cc1cc(F)ccc1F)C1CCN(C(=O)c2cc(C(F)(F)F)ccn2)CC1` (centres unmarked) [Example 58], the IC50 was < 100 nM.

Take `NC(Cc1cc(F)ccc1F)C1CCN(C(=O)c2cccc(C(F)(F)F)n2)CC1` (centres unmarked) [Example 59]: the IC50 is < 100 nM.

Take `N[C@H](Cc1cc(F)ccc1F)C1CCN(C(=O)c2nccc(C(F)(F)F)n2)CC1` [Example 60]: the concentration for half-maximal inhibition (IC50) was < 100 nM.

Molecule `N[C@@H](Cc1cc(F)ccc1F)C1CCN(C(=O)c2nccc(C(F)(F)F)n2)CC1` [Example 61] came in with an IC50 of 101 to 1000 nM.

In the case of `N[C@H](Cc1cc(F)c(F)cc1F)C1CCN(C(=O)c2ncccn2)CC1` [Example 63, {4-[(R)-1-amino-2-(2,4,5-trifluoro-phenyl)-ethyl]-piperidine-1yl}-pyrimidine-2-yl-methanone], the concentration for half-maximal inhibition (IC50) was < 100 nM.

In the case of `N[C@H](Cc1cc(F)c(F)cc1F)C1CCN(C(=O)c2ccnc(C(F)(F)F)n2)CC1` [Example 64], the IC50 was < 100 nM.

For `NC(Cc1cc(F)c(F)cc1F)C1CCN(C(=O)c2ccnc(C(F)(F)F)n2)CC1` (centres unmarked) [Example 66], the half-maximal inhibitory concentration (IC50) was < 100 nM.

With `N[C@H](Cc1cc(F)c(F)cc1F)C1CCN(C(=O)c2ccc(C(F)(F)F)nc2)CC1` [Example 67], the half-maximal inhibitory concentration (IC50) was < 100 nM.

As to `N[C@H](Cc1cc(F)cc(F)c1F)C1CCN(C(=O)c2ncccn2)CC1` [Example 68], the concentration for half-maximal inhibition (IC50) was 101 to 1000 nM.

As to `N[C@H](Cc1cc(F)cc(F)c1F)C1CCN(C(=O)c2ccnc(C(F)(F)F)n2)CC1` [Example 69], the concentration for half-maximal inhibition (IC50) is < 100 nM.

With `CC(C)(C)OC(=O)N1CCCC(C(N)Cc2cccc(Cl)c2)C1` (centres unmarked) [Example 70, 3-[1-Amino-2-(3-chloro-phenyl)-ethyl]-piperidine-1-carboxylic acid tert.-butyl ester], the concentration for half-maximal inhibition (IC50) was 101 to 1000 nM.

As to `NC(Cc1cccc(Cl)c1)C1CCCNC1` (centres unmarked) [Example 71, 2-(3-Chloro-phenyl)-1-piperidin-3-yl-ethylamine], the IC50 is 1000 to 2000 nM.
